The subject of experiment [1] is HL60 (leukemia). The experiment can be described thus: In vitro cytotoxic activity MTT assay, HL60. Conditions: Homo sapiens, HL-60; cells exposed for 96 hours; 50% inhibition of cell proliferation; read-out: Cytotoxicity activity IC50, HL60 (leukemia). Format: cell-based. As for the experimental part: (§1) Compounds 1-16 were screened for their in vitro cytotoxic activity utilizing a 3-(4,5-dimethyl-thiazol-2-yl)-2,5-diphenyltetrazolium bromide (MTT) assay against selected cancer human cell lines consisting of PC3 (prostate), HCT116 (colon), A375 (melanoma), H1299 (lung), MIAPaCa-2 (pancreas), HL60 (leukemia), MCF7 (breast), MDA-MB-231 (breast) (T. Mosmann, J. Immunol. Meth., 1983, 65, 55-63). The cells were cultured at 37° C. in RMPI1640 medium supplemented with 10% fetal bovine serum, 50 IU/mL penicillin, and 50 μg/mL streptomycin in a 5% CO2 incubator. All cells were sub-cultured 3 times/week by trypsinisation. Viable cells were seeded and allowed to adhere for 12 h before a test drug was added in 96-well plates at an initial density of 1.0×10^5 cells/mL. Tumor cell lines were separately exposed to various concentrations of the tested compounds followed by incubation at a temperature of 37° C. during 96 hours inside a medium of fresh RMPI 1640. Cells were subsequently incubated at 37° C. using MTT at 0.5 mg/mL during 4 hours. After removal of supernatant, formazan crystals were dissolved in isopropanol and the optical density was measured at 570 nm. CX-4945 was used as a positive control.
(In general: Formazan colour is commonly taken as a measure of viable cells.)

Experiment [2] deals with HCT116 (colon). The experiment is described as follows: In vitro cytotoxic activity MTT assay, HCT116. It counts as cell-based. Conditions: Homo sapiens, HCT-116; cells exposed for 96 hours; 50% inhibition of cell proliferation; read-out: Cytotoxicity activity IC50, HCT116 (colon). Here is the method:
as §1

In experiment [3] the test system is MIAPaCa-2 (pancreas). The experiment can be described thus: In vitro cytotoxic activity MTT assay, MIAPaCa-2. It counts as cell-based. To be noted: Homo sapiens, MIA PaCa-2; cells exposed for 96 hours; 50% inhibition of cell proliferation; read-out: Cytotoxicity activity IC50, MIAPaCa-2 (pancreas). Here is the method:
as §1

The subject of experiment [4] is MDA-MB-231 (breast). The experiment can be described thus: In vitro cytotoxic activity MTT assay, MDA-MB-231. Format: cell-based. Conditions: Homo sapiens, cells exposed for 96 hours, 50% inhibition of cell proliferation, read-out: Cytotoxicity activity IC50, MDA-MB-231 (breast). Here is the method:
as §1

Experiment [5] relates to A375 (melanoma). The experiment is described as follows: In vitro cytotoxic activity MTT assay, A375. Format: cell-based. To be noted: Homo sapiens, A-375; cells exposed for 96 hours; 50% inhibition of cell proliferation; read-out: Cytotoxicity activity IC50, A375 (melanoma). As for the experimental part: as §1
For experiment [6], the target named is T1, recombinant human CK2 (Homo sapiens, UniProt P68400).
T1 construct: purchased Millipore
T1 sequence (P68400 whole entry): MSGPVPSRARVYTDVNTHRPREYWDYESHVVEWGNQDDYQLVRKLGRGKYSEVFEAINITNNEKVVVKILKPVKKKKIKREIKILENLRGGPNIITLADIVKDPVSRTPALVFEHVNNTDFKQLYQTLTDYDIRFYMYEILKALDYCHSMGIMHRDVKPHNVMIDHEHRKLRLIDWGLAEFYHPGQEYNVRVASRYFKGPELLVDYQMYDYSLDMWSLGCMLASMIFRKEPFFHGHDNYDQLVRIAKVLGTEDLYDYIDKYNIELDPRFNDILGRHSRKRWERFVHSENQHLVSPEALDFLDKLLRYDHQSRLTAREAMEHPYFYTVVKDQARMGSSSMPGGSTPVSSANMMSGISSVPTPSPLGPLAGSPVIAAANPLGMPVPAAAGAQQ
T1 sequence (P67870 whole entry partner): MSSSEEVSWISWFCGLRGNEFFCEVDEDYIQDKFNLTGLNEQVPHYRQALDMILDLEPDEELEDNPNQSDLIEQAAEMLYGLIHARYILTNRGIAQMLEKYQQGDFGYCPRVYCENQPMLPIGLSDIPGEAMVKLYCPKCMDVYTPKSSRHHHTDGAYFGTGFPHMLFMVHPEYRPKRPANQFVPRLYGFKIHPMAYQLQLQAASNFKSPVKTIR
The experiment can be described thus: CK2 Kinase Assay (33P-ATP, substrate peptide RRRDDDSDDD). It counts as biochemical. To be noted: final ATP concentration 15 μM; 10 min at 30° C.; eight concentrations; read-out: protein kinase CK2 IC50. Here is the method: CK2 Kinase Assay was conducted using the protocol as described in Pierre F. et al; J. Med. Chem. 2011, 54, 635-654. The tested compounds in aqueous solution were added at a volume of 10 μL to a reaction mixture comprising 10 μL of assay dilution buffer (ADB; 20 mM MOPS, pH 7.2, 25 mM β-glycerol phosphate, 5 mM EGTA, 1 mM sodium orthovanadate, and 1 mM dithiothreitol), 10 μL of substrate peptide (RRRDDDSDDD, dissolved in ADB at a concentration of 1 mM), 10 μL of recombinant human CK2 (RRββ-holoenzyme, 25 ng dissolved in ADB; Millipore). Reactions were initiated by the addition of 10 μL of ATP solution (90%75 mMMgCl2, 75 µM ATP (final ATP concentration: 15 μM) dissolved in ADB; 10% [γ-33P] ATP (stock 1 mCi/100 μL; 3000 Ci/mmol (Perkin-Elmer) and maintained for 10 min at 30° C. The reactions were quenched with 100 μL of 0.75% phosphoric acid and then transferred to and filtered through a phosphor cellulose filter plate (Millipore). After washing each well five times with 0.75% phosphoric acid, the plate was dried under vacuum for 5 min and, following the addition of 15 μL of scintillation fluid to each well, the residual radioactivity was measured using a Wallac luminescence counter. The IC50 values were derived from eight concentrations of test inhibitors.

Experiment [7] concerns MCF7 (breast). The experiment is described as follows: In vitro cytotoxic activity MTT assay, MCF7. Format: cell-based. Conditions: Homo sapiens, cells exposed for 96 hours, 50% inhibition of cell proliferation, read-out: Cytotoxicity activity IC50, MCF7 (breast). Here is the method:
as §1

Experiment [8] relates to PC3 (prostate). The experiment can be described thus: In vitro cytotoxic activity MTT assay, PC3. Format: cell-based. Conditions: Homo sapiens; cells exposed for 96 hours; 50% inhibition of cell proliferation; read-out: Cytotoxicity activity IC50, PC3 (prostate). Here is the method: as §1
The test system of experiment [9] is H1299 (lung). The experiment can be described thus: In vitro cytotoxic activity MTT assay, H1299. Format: cell-based. To be noted: Homo sapiens, NCI-H1299; cells exposed for 96 hours; 50% inhibition of cell proliferation; read-out: Cytotoxicity activity IC50, H1299 (lung). As for the experimental part: as §1

`Clc1cccc(Nc2c3cnccc3nc3c2nn2ccncc32)c1` [Compound (1), N-(3-chlorophenyl)pyrazino[1′,2′:1,5]pyrazolo[4,3-b][1,6]naphthyridin-7-amine]: the IC50 in [1] is 2900 nM; in [2] it was 1700 nM; in [3], 1100 nM; in [4] it was 5300 nM; in experiment [5], 3600 nM; in [6], 100000 nM. Also, the results for the half-maximal inhibitory concentration (IC50) in experiment [7], in [8] and in [9] were 6100 nM, 1400 nM and 2500 nM, respectively.

What is called IC50 is the concentration at which inhibition is half-maximal.

For the origin of these results see patent US12129259B1, “Pyrazino[1′,2′:1,5]pyrazolo[4,3-b][1,6]naphthyridines compounds as CK2 inhibitors” (KING FAISAL UNIVERSITY, priority 2023, dated 2024).
